Test results as given in patent US9062033B2, “Chemical compounds” (Rottapharm Biotech S.r.l., priority 2011, dated 2015).

Key:
human OX2 receptors = target: T1, human OX2 receptors (Homo sapiens, UniProt O43614); experiment: Antagonistic activity against human OX2 receptor, [Ca2+]i fluorimetry (Fluo-4NW) in transfected HEK-293 cells activated with orexin-B; assay type: cell-based; details: for Kb: HEK-293 cells transfected with human recombinant OX2, orexin-B 10 nM, pKb = co-logarithm of apparent dissociation constant, modified Cheng Prusoff; for pKb OX2: comparison table with compound of WO2011006960
T1 construct: expressed in transfected cells; host or cells: HEK-293 cells
T1 sequence (O43614 1-444): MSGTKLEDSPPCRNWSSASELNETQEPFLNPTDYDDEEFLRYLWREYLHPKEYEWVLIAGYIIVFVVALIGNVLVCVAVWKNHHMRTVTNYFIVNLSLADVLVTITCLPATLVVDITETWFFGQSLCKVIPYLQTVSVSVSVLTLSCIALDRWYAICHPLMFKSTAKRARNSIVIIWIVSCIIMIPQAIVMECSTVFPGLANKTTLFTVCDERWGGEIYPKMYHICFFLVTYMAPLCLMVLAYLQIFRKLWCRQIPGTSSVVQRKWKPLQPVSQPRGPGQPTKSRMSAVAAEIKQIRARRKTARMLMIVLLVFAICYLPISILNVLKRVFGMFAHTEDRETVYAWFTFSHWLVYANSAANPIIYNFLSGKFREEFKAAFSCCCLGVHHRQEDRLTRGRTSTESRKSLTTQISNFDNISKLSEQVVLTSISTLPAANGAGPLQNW
Procedure: (§1) In a typical experiment, the antagonistic activity against human OX1 and OX2 receptors is determined by using CHO e HEK-293 cells transfected with human recombinant OX1 and OX2 receptors respectively, seeded at density of 2 and 3×10^4 cells/well respectively in a 96 fluorimetry well plate. Thus the plate was loaded with the calcium dye (Fluo-4NW/probenecid in HBSS, Hepes 20 mM, pH 7.4; Invitrogen) at 37° C. for 60 min. Afterward the temperature was equilibrated at 22° C. for 15 min and the [Ca2+]i measured directly on the plate by using a fluorescent plate reader (CellLux Perkin Elmer).
(§2) Invention compounds were dissolved in DMSO, diluted in HBSS (DMSO, 0.3% final) and added to the wells. After 5 min CHO cells were activated with orexin-A, 3 nM while HEK-293 cells were activated with orexin-B, 10 nM.
(§3) The compounds, dissolved in DMSO and diluted in the medium (DMSO, 0.3% final), have been analysed in the 1 nM-1 μM concentration range (every concentration in duplicate). The antagonistic activity has been expressed as pKb (co-logarithm of the apparent dissociation constant calculated by using the modified Cheng Prusoff equation).
(§4) The results are expressed as percent of control specific […] response ((measured specific response/control specific agonist response)×100) obtained in the presence of the test compounds.
(§5) The IC50 values (concentration causing a half-maximal inhibition of the control specific agonist response) were determinated by non-linear regression analysis of the concentration curves generated with mean replicate values using hill equation curve fitting. The IC50 values are obtained by the arithmetical mean of at least two experiments. Compounds of the following example tested according to this example gave pKbs as follows: […]

human OX1 receptors = target: T2, human OX1 receptors (Homo sapiens, UniProt O43613); experiment: Antagonistic activity against human OX1 receptor, [Ca2+]i fluorimetry (Fluo-4NW) in transfected CHO cells activated with orexin-A; assay type: cell-based; details: for Kb: CHO cells transfected with human recombinant OX1, orexin-A 3 nM, pKb = co-logarithm of apparent dissociation constant, modified Cheng Prusoff; for pKb OX1: comparison table with compound of WO2011006960
T2 construct: expressed in transfected cells; host or cells: CHO cells
T2 sequence (O43613 1-425): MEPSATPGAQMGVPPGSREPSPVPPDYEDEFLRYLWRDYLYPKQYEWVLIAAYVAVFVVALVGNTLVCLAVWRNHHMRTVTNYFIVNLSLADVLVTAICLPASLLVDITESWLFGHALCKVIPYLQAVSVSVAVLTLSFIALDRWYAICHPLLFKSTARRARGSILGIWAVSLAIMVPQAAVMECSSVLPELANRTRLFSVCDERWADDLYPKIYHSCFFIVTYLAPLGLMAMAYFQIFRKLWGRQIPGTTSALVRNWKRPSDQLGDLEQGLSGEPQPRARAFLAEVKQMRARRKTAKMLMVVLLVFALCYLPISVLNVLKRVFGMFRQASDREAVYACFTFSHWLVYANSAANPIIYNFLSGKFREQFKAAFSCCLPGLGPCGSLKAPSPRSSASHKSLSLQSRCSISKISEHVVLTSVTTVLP
Procedure: as §1, §2, §3, §4, §5

SMILES | Kb (human OX2 receptors) [nM] | Kb (human OX1 receptors) [nM] | pKb OX2 (human OX2 receptors) | pKb OX1 (human OX1 receptors)
O=C(c1cccc2c1OC(F)(F)O2)N1CC2(CC2)C[C@H]1CNc1ccc(C(F)(F)F)cn1 [Compound 1b, (S)-(2,2-difluorobenzo[d][1,3]dioxol-4-yl)(6-(((5-(trifluoromethyl)pyridin-2-yl)amino)methyl)-5-azaspiro[2.4]heptan-5-yl)methanone] | 63.1 | 79.4 |  | 
Cc1ccc(-c2ncccn2)c(C(=O)N2CC3(CC3)C[C@H]2CNc2nccc(C(F)(F)F)n2)c1 [Compound 1p, (S)-(5-methyl-2-(pyrimidin-2-yl)phenyl)(6-(((4-(trifluoromethyl)pyrimidin-2-yl)amino)methyl)-5-azaspiro[2.4]heptan-5-yl)methanone] | 20 | 79.4 |  | 
Cc1ccc(-c2ncccn2)c(C(=O)N2CC3(CC3)C[C@H]2CNc2cc(C(F)(F)F)ccn2)c1 [Compound 1n, (S)-(5-methyl-2-(pyrimidin-2-yl)phenyl)(6-(((4-(trifluoromethyl)pyridin-2-yl)amino)methyl)-5-azaspiro[2.4]heptan-5-yl)methanone] | 15.8 | 50.1 | 7.8 | 7.3
O=C(c1cc(Cl)ccc1-c1ncccn1)N1CC2(CC2)C[C@H]1CNc1nccc(C(F)(F)F)n1 [Compound 1q] | 6.31 | 39.8 |  | 
O=C(c1cc(Br)ccc1-c1ncccn1)N1CC2(CC2)C[C@H]1CNc1ccc(C(F)(F)F)cn1 [Compound 1e, (S)-(5-bromo-2-(pyrimidin-2-yl)phenyl)(6-(((5-(trifluoromethyl)pyridin-2-yl)amino)methyl)-5-azaspiro[2.4]heptan-5-yl)methanone] | 20 | 3.16 |  | 
Cc1ccc(-c2ncccn2)c(C(=O)N2CC3(CC3)C[C@H]2CNc2cc(C(F)(F)F)c(Cl)cn2)c1 [Compound 1r, (S)-(6-(((5-chloro-4-(trifluoromethyl)pyridin-2-yl)amino)methyl)-5-azaspiro[2.4]heptan-5-yl)(5-methyl-2-(pyrimidin-2-yl)phenyl)methanone] | 10 | 6.31 |  | 
Cc1ccc(-c2ncccn2)c(C(=O)N2CC3(CC3)C[C@H]2CNc2ccc(C(F)(F)F)cn2)c1 [Compound 1o, (S)-(5-methyl-2-(pyrimidin-2-yl)phenyl)(6-(((5-(trifluoromethyl)pyridin-2-yl)amino)methyl)-5-azaspiro[2.4]heptan-5-yl)methanone] | 251 | 2 | 6.6 | 8.7
Cc1ccc(-c2ncccn2)c(C(=O)N2CC3(CC3)C[C@H]2CNc2ncc(C(F)(F)F)cn2)c1 [Compound 1s, (S)-(5-methyl-2-(pyrimidin-2-yl)phenyl)(6-(((5-(trifluoromethyl)pyrimidin-2-yl)amino)methyl)-5-azaspiro[2.4]heptan-5-yl)methanone] | 100 | 25.1 |  | 

More lines, now with the values ahead:

Kb (human OX2 receptors) [nM] | Kb (human OX1 receptors) [nM] | pKb OX2 (human OX2 receptors) | pKb OX1 (human OX1 receptors) | SMILES
15.8 | 39.8 |  |  | Cc1ccc(OCc2ccc(F)cc2)c(C(=O)N2CC3(CC3)C[C@H]2CNc2ccc(C(F)(F)F)cn2)n1 [Compound 3m, (S)-(3((4-fluorobenzyl)oxy)-6-methylpyridin-2-yl)(6-(((5-(trifluoromethyl)pyridin-2-yl)amino)methyl)-5-azaspiro[2.4]heptan-5-yl)methanone]
2.51 | 31.6 |  |  | Cc1cc(C)nc(NC[C@@H]2CC3(CC3)CN2C(=O)c2nc(C)sc2-c2ccccc2)n1 [Compound 2f, (S)-(6-(((4,6-dimethylpyrimidin-2-yl)amino)methyl)-5-azaspiro[2.4]heptan-5-yl)(2-methyl-5-phenylthiazol-4-yl)methanone]
126 | 3.98 |  |  | O=C(c1ncccc1-c1ccccn1)N1CC2(CC2)C[C@H]1CNc1ccc(C(F)(F)F)cn1 [Compound E7, (S)-[2,3′-bipyridin]-2′-yl(6-(((5-(trifluoromethyl)pyridin-2-yl)amino)methyl)-5-azaspiro[2.4]heptan-5-yl)methanone]
79.4 | 79.4 |  |  | Cc1ccc(OCc2ccc(F)cc2F)c(C(=O)N2CC3(CC3)C[C@H]2CNc2ccc(C(F)(F)F)cn2)n1 [Compound 3n, (S)-(3-((2,4-difluorobenzyl)oxy)-6-methylpyridin-2-yl)(6-(((5-(trifluoromethyl)pyridin-2-yl)amino)methyl)-5-azaspiro[2.4]heptan-5-yl)methanone]
7.94 | 10 |  |  | N#Cc1ccc(-c2ncccn2)c(C(=O)N2CC3(CC3)C[C@H]2CNc2ccc(C(F)(F)F)cn2)c1 [Compound E12, (S)-4-(pyrimidin-2-yl)-3-(6-(((5-(trifluoromethyl)-pyridin-2-yl)amino)methyl)-5-azaspiro[2.4]heptane-5-carbonyl)benzonitrile]
31.6 | 20 |  |  | Cc1ccc(-c2ccc(C#N)cc2)c(C(=O)N2CC3(CC3)C[C@H]2CNc2ccc(C(F)(F)F)cn2)n1 [Compound E8, (S)-4-(6-methyl-2-(6-(((5-(trifluoromethyl)pyridin-2-yl)amino)methyl)-5-azaspiro[2.4]heptane-5-carbonyl)pyridin-3-yl)benzonitrile]
2.51 | 2.51 |  |  | Cc1ccc(OCc2ccccc2)c(C(=O)N2CC3(CC3)C[C@H]2CNc2ccc(C(F)(F)F)cn2)n1 [Compound 3k, (S)-(3-(benzyloxy)-6-methylpyridin-2-yl)(6-(((5-(trifluoromethyl)pyridin-2-yl)amino)methyl)-5-azaspiro[2.4]heptan-5-yl)methanone]
25.1 | 126 |  |  | Cc1ccc(-c2ncccn2)c(C(=O)N2CC3(CC3)C[C@H]2CNc2nccc3ncccc23)n1 [Compound 3p, (S)-(6-(((1,6-naphthyridin-5-yl)amino)methyl)-5-azaspiro[2.4]heptan-5-yl)(6-methyl-3-(pyrimidin-2-yl)pyridin-2-yl)methanone]
6.31 | 3.98 |  |  | Cc1nc(C(=O)N2CC3(CC3)C[C@H]2CNc2nc3ccc(F)cc3s2)c(-c2ccccc2)s1 [Compound 2h, (S)-(6-(((6-fluorobenzo[d]thiazol-2-yl)amino)methyl)-5-azaspiro[2.4]heptan-5-yl)(2-methyl-5-phenylthiazol-4-yl)methanone]
7.94 | 25.1 |  |  | Cc1ccc(OCc2cccc(F)c2F)c(C(=O)N2CC3(CC3)C[C@H]2CNc2ccc(C(F)(F)F)cn2)n1 [Compound 3l, (S)-(3-((2,3-difluorobenzyl)oxy)-6-methylpyridin-2-yl)(6-(((5-(trifluoromethyl)pyridin-2-yl)amino)methyl)-5-azaspiro[2.4]heptan-5-yl)methanone]
